Patent publication US20060030537A1, “Ceramide kinase and uses thereof” (priority 2004, published 2006)

Columns and labels:
A549 cells = assay: Quantification of arachidonic acid (AA) release in A549 cells; type: cell-based
Method: Cell Culture: A549 lung adenocarcinoma cells (epithelial-derived) were grown in low glucose DMEM (Invitrogen) supplemented with L-glutamine, 10% (v/v) fetal bovine serum (Invitrogen), 200 U/ml of penicillin G sodium, and 200 μg/ml of streptomycin sulfate. Cells were maintained under 80% confluency and standard incubator conditions (humidified atmosphere, 95% air, 5% CO2, 370 C). For treatment, cells were incubated for 2 hours in low glucose DMEM (Invitrogen) supplemented with L-glutamine, 2% (v/v) fetal bovine serum (Invitrogen), 200 U/ml of penicillin G sodium, and 200 μg/ml of streptomycin sulfate prior to the addition of agonist.
(§1) Quantification of arachidonic acid (AA) release: A549 cells (5×10^4) were labeled overnight with 5 μCi/mL [^3H]-AA (5 nM) (NEN). Cells were washed and incubated in DMEM supplemented with 2% fetal bovine serum for 2 hours. Following treatment, media was transferred to 1.5 mL polypropylene tubes, centrifuged at 10,000×g, and ^3H-AA cpm determined by scintillation counting. Results were controlled for equivalent number of cells quantified by MTT assay as described (Chalfant, C. E., Rathman, K., Pinkerman, R. L., Wood, R. E., Obeid, L. M., Ogretmen, B., and Hannun, Y. A. (2002) J. Biol. Chem. 277, 12587-12595) and by verification of total AA labeling by scintillation counting. For the experiments in FIG. 4, purified SMase D was obtained from Dr. Alfred H. Merrill, Jr., and SMase C (purified from Bacillus cereus) was obtained commercially from Sigma.
RNAi design and transfections: Knock-downs of ceramide kinase were performed essentially as described using sequence specific siRNA reagents (http:www.mpibpc.gwdg.de/abteilungen/100/105/sirna.html) (Lassus, P., Opitz-Araya, X., and Lazebnik, Y. (2002) Science 297, 1352-1354) using human ceramide kinase RNAi starting 142 nucleotides from start codon ([…]dTd (SEQ ID NO: 3) and […]dTd (SEQ ID NO:4)). All sequences were evaluated against the database using the NIH blast program to test for specificity (Xeragon, A Qiagen Company). A549 cells (3×10^4) were transfected with the 21-nucleotide duplexes using OligofectAMINE (Invitrogen) as recommended by the manufacturer. Following the 4 hour transfection, cells were treated and assayed for AA release or PGE2 synthesis at 26 hours post-transfection.

L929 fibroblasts = assay: AA release in L929 fibroblasts; type: cell-based
Method: FIGS. 3A-3B. FIG. 3A. The effects of ceramide-1-phosphate on TXB2 synthesis. A549 cells (1×10^5) were treated with D-e-C16 ceramide-1-phosphate (1 μM) solubilized in 2% dodecane/98% ethanol (final concentration in treatments was 0.002% dodecane/0.098% ethanol (EtOH)) for the indicated times. The results are presented as % control of TXB2 controlled for equivalent number of cells by MTT assay. Data are representative of 3 separate determinations on 2 separate occasions. FIG. 3B. The effects of ceramide-1-phosphate on AA release and PGE2 synthesis in L929 fibroblasts. L929 cells (5×10^4) were labeled overnight with 5 μCi/mL [^3H]-arachidonic acid (5 nM). Cells were washed and placed in DMEM supplemented with 2% fetal bovine serum for two hours. […]
as §1, with “Cells were washed and incubated in DMEM supplemented with 2% fetal bovine serum for 2 hours.” left out, “For the experiments in FIG. 4, purified SMase D was obtained from Dr. Alfred H. Merrill, Jr., and SMase C (purified from Bacillus cereus) was obtained commercially from Sigma.” left out

ceramide kinase RNAi: 21-nucleotide duplex, human ceramide kinase RNAi starting 142 nucleotides from start codon (SEQ ID NO: 3 and 4) (chain 1 UGCCUGCUCUGUGCCUGUATT; chain 2 UACAGGCACAGAGCAGGCATT; chemistry not given here)
inhibition of AA release in response to A23187 (A549 cells; A23187 1 μg/mL, 26 hours post-transfection): 72% | AA release in response to C-1-P treatment (A549 cells; C-1-P 2.5 μM for 5 hours): no effect | inhibition of AA release in response to IL-1β (A549 cells; IL-1β 2.5 ng/mL for 4 hours, 26 hours post-transfection): 78% | IC50 (A549 cells; IL-1β or A23187, read-out: IC50 of inhibition of agonist-induced AA release): ~30 nM | inhibition of AA release in response to IL-1β (L929 fibroblasts): over 60%
